Test results as given in the kinase profiling compilation of Christmann-Franck et al. (2016).

Assays:
Assay in all cases: radiometric filter-binding kinase assay, Kinase HotSpot
Details in all cases: compound 0.5 µM; ATP 10 µM
ABL1 (human) = ABL1 (human) (UniProt P00519)
ACVRL1 (human) = ACVRL1 (human) (UniProt P37023)
BRSK2 (human) = BRSK2 (human) (UniProt Q8IWQ3)
CAMK1G (human) = CAMK1G (human) (UniProt Q96NX5)
CAMK2D (human) = CAMK2D (human) (UniProt Q13557)
CAMK2G (human) = CAMK2G (human) (UniProt Q13555)
CDK3 CCNE1 (human) = CDK3 CCNE1 (human) (UniProt Q00526+P24864)
CDK6 CCND1 (human) = CDK6 CCND1 (human) (UniProt Q00534+P24385)
CDK6 CCND3 (human) = CDK6 CCND3 (human) (UniProt P30281+Q00534)
CDK7 CCNH MNAT1 (human) = CDK7 CCNH MNAT1 (human) (UniProt P50613+P51948+P51946)
CDK9 CCNK (human) = CDK9 CCNK (human) (UniProt O75909+P50750)
CLK1 (human) = CLK1 (human) (UniProt P49759)
CSNK1A1 (human) = CSNK1A1 (human) (UniProt P48729)
DYRK1A (human) = DYRK1A (human) (UniProt Q13627)
EPHA4 (human) = EPHA4 (human) (UniProt P54764)
EPHB4 (human) = EPHB4 (human) (UniProt P54760)
FGFR2 (human) = FGFR2 (human) (UniProt P21802)
FYN (human) = FYN (human) (UniProt P06241)
GSK3A (human) = GSK3A (human) (UniProt P49840)
HIPK1 (human) = HIPK1 (human) (UniProt Q86Z02)
MAP2K2 (human) = MAP2K2 (human) (UniProt P36507)
MAP3K10 (human) = MAP3K10 (human) (UniProt Q02779)
MAP3K2 (human) = MAP3K2 (human) (UniProt Q9Y2U5)
MAP4K5 (human) = MAP4K5 (human) (UniProt Q9Y4K4)
MERTK (human) = MERTK (human) (UniProt Q12866)
NEK11 (human) = NEK11 (human) (UniProt Q8NG66)
NEK4 (human) = NEK4 (human) (UniProt P51957)
PLK2 (human) = PLK2 (human) (UniProt Q9NYY3)
PTK2B (human) = PTK2B (human) (UniProt Q14289)
PTK6 (human) = PTK6 (human) (UniProt Q13882)
RPS6KA2 KD1 KD2 (human) = RPS6KA2 KD1 KD2 (human) (UniProt Q15349)
RPS6KA4 KD2 (human) = RPS6KA4 KD2 (human) (UniProt O75676)
RPS6KA5 KD2 (human) = RPS6KA5 KD2 (human) (UniProt O75582)
SLK (human) = SLK (human) (UniProt Q9H2G2)
SRC (human) = SRC (human) (UniProt P12931)
SRMS (human) = SRMS (human) (UniProt Q9H3Y6)
TAOK2 (human) = TAOK2 (human) (UniProt Q9UL54)
TEC (human) = TEC (human) (UniProt P42680)
TSSK2 (human) = TSSK2 (human) (UniProt Q96PF2)
WNK2 (human) = WNK2 (human) (UniProt Q9Y3S1)
CSF1R (human) = CSF1R (human) (UniProt P07333)

Chain of TAOK2 (human) (Q9UL54 whole entry, looked up): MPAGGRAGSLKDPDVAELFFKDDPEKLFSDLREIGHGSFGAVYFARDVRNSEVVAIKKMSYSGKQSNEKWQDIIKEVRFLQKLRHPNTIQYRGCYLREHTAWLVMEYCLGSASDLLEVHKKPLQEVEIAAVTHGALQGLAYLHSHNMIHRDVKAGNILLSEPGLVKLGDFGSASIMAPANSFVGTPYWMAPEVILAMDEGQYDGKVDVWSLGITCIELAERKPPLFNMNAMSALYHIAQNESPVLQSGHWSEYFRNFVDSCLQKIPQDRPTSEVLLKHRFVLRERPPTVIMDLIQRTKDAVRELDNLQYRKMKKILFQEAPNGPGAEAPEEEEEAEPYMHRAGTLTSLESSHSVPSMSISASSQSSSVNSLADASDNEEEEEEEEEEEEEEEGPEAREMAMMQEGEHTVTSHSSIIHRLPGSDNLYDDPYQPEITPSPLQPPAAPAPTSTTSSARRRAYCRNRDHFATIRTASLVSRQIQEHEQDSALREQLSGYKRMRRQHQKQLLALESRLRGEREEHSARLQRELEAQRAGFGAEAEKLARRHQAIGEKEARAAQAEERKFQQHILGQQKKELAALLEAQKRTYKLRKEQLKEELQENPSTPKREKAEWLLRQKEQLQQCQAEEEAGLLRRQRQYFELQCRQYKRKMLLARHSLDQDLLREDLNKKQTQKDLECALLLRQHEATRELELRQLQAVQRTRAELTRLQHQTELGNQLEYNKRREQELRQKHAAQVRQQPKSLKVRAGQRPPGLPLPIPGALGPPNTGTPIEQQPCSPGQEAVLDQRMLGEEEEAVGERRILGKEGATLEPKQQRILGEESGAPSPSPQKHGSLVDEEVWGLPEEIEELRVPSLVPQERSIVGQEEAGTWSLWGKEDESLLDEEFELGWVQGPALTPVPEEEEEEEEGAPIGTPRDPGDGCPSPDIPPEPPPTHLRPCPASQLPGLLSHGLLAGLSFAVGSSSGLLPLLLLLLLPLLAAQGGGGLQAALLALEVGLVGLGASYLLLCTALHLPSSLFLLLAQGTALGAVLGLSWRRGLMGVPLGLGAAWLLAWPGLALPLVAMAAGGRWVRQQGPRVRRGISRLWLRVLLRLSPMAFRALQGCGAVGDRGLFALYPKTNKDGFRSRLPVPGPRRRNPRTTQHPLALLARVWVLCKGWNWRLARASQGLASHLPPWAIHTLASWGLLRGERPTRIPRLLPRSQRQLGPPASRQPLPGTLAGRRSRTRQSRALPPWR
Chain of PTK6 (human) (Q13882 whole entry, looked up): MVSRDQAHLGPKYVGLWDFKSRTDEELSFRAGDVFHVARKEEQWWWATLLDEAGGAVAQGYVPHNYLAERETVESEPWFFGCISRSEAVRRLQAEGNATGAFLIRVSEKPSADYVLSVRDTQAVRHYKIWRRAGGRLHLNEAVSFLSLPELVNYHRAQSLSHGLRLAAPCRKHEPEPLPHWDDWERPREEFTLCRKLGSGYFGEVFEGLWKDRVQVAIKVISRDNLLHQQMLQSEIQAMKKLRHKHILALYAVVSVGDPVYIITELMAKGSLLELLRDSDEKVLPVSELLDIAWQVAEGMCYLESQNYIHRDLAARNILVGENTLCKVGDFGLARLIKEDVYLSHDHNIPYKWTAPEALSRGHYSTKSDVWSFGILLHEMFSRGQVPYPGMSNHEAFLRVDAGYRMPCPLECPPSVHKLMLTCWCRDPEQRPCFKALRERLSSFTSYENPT
Chain of CDK9 CCNK (human) (O75909 whole entry, looked up): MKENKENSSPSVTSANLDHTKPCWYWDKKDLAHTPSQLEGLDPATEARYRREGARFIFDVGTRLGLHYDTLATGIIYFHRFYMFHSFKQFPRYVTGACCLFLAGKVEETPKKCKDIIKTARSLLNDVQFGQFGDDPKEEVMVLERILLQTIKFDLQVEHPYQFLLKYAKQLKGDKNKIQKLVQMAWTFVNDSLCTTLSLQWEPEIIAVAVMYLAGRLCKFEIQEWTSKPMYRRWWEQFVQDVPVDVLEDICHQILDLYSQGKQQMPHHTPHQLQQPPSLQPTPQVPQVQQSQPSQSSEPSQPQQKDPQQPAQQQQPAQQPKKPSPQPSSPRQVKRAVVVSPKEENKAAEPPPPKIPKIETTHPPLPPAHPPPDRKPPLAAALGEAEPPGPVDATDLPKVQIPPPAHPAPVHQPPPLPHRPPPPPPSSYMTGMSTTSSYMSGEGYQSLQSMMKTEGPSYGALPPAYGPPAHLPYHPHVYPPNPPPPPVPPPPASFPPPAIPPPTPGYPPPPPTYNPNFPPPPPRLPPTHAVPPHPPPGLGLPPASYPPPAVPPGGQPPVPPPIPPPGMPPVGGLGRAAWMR
Chain of CDK9 CCNK (human) (P50750 whole entry, looked up): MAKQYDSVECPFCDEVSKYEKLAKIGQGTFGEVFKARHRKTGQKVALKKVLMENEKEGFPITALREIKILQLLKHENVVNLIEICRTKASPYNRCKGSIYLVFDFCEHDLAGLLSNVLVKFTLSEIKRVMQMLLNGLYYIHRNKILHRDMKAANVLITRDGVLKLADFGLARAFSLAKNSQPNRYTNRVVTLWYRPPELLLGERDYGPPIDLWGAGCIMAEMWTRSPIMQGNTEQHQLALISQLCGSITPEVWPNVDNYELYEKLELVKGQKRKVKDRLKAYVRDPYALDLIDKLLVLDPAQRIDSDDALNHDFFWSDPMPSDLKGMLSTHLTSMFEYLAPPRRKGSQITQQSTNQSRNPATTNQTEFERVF
Chain of MERTK (human) (Q12866 whole entry, looked up): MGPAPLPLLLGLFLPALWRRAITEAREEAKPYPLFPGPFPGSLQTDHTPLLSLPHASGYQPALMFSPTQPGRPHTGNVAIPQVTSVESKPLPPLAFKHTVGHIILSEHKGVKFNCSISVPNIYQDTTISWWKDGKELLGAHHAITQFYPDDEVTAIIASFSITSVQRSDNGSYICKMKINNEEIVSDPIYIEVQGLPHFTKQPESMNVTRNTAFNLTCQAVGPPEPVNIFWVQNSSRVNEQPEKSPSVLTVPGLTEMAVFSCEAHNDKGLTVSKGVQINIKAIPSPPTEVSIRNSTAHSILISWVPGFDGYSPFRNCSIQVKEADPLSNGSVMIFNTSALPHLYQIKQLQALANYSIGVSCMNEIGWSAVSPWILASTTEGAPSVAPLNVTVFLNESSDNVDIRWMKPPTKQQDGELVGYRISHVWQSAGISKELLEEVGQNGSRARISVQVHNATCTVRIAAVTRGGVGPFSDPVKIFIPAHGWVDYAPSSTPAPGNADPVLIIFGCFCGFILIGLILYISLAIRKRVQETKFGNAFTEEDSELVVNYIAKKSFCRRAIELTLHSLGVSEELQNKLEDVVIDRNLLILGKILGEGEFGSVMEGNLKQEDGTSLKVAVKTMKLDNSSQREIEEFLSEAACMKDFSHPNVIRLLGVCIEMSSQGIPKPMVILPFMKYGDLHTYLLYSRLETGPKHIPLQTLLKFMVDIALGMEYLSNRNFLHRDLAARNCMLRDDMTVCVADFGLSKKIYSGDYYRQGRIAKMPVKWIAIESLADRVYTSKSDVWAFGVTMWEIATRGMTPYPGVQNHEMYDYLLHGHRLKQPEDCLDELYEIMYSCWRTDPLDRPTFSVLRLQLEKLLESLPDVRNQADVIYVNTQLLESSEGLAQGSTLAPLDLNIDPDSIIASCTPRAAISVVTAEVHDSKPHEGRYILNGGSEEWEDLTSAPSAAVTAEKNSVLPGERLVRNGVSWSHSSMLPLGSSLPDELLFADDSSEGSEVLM
Chain of CDK6 CCND3 (human) (P30281 whole entry, looked up): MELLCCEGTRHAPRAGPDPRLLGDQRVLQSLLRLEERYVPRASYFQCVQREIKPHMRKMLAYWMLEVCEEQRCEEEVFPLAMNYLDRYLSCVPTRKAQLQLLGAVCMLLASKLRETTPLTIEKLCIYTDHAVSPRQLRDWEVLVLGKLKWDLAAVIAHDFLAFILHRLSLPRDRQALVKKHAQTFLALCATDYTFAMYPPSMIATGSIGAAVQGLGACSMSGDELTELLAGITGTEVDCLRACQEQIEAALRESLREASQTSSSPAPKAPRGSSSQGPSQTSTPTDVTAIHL
Chain of CDK6 CCND3 (human) (Q00534 whole entry, looked up): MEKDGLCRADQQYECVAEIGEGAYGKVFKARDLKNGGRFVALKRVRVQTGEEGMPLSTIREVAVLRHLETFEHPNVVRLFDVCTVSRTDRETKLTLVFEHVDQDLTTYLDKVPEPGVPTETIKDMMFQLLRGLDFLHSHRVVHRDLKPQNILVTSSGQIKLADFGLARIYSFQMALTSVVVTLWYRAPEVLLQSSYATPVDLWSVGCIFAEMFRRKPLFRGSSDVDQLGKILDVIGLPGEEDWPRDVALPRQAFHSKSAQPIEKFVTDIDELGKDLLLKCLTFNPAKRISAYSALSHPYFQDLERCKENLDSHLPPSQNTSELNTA
Chain of GSK3A (human) (P49840 whole entry, looked up): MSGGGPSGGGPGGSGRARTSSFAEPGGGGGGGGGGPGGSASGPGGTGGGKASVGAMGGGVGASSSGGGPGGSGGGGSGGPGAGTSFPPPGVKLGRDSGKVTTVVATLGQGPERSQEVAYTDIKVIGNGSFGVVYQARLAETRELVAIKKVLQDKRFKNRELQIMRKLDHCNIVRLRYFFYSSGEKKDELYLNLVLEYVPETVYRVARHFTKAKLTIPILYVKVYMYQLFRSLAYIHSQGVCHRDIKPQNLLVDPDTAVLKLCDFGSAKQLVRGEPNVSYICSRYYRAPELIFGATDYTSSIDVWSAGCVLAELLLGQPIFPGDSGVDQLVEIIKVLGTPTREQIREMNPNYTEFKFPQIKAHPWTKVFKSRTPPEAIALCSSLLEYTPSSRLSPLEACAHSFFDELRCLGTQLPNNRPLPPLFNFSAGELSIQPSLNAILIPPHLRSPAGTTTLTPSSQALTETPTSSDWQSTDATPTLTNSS

Compound	residual activity (ACVRL1 (human)) [%]	residual activity (BRSK2 (human)) [%]	residual activity (CAMK2D (human)) [%]	residual activity (CAMK2G (human)) [%]	residual activity (CDK3 CCNE1 (human)) [%]	residual activity (CDK6 CCND1 (human)) [%]	residual activity (CDK6 CCND3 (human)) [%]	residual activity (CDK7 CCNH MNAT1 (human)) [%]	residual activity (CDK9 CCNK (human)) [%]	residual activity (CLK1 (human)) [%]	residual activity (EPHA4 (human)) [%]	residual activity (FGFR2 (human)) [%]	residual activity (GSK3A (human)) [%]	residual activity (HIPK1 (human)) [%]	residual activity (MAP2K2 (human)) [%]	residual activity (MAP3K10 (human)) [%]	residual activity (MAP3K2 (human)) [%]	residual activity (MAP4K5 (human)) [%]	residual activity (MERTK (human)) [%]	residual activity (NEK11 (human)) [%]	also measured
COc1ccc(COc2ccc(Cc3cnc(N)nc3N)cc2OC)cc1	101	96.8	109	94.4	82.9	101	94.5	100	102	103	105	102	108	110	101	96.4	108	97.4	90.3	103	residual activity (ABL1 (human)): 102%; residual activity (CAMK1G (human)): 98.3%; residual activity (CSNK1A1 (human)): 97.9%; residual activity (DYRK1A (human)): 88.1%; residual activity (EPHB4 (human)): 90.5%; residual activity (FYN (human)): 102%; residual activity (NEK4 (human)): 92.2%; residual activity (PLK2 (human)): 116%; residual activity (PTK2B (human)): 86.1%; residual activity (PTK6 (human)): 96.1%; residual activity (RPS6KA2 KD1 KD2 (human)): 105%; residual activity (RPS6KA4 KD2 (human)): 107%; residual activity (RPS6KA5 KD2 (human)): 103%; residual activity (SLK (human)): 97.7%; residual activity (SRC (human)): 97.9%; residual activity (SRMS (human)): 95.9%; residual activity (TAOK2 (human)): 94.7%; residual activity (TEC (human)): 114%; residual activity (TSSK2 (human)): 109%; residual activity (WNK2 (human)): 94.6%
Nc1cccc(-c2cc3c(Oc4cccc(O)c4)ncnc3[nH]2)c1	70.3	86.9	99.8	105	82.3	82.2	91.3	94.2	58.4	93	48.3	46.1	41.6	82.7	104	79.2	86.9	18.4	63.8	89.6	residual activity (ABL1 (human)): 5.5%; residual activity (CAMK1G (human)): 99%; residual activity (CSF1R (human)): 13.6%; residual activity (CSNK1A1 (human)): 61.8%; residual activity (DYRK1A (human)): 103%; residual activity (FYN (human)): 7.92%; residual activity (NEK4 (human)): 91.4%; residual activity (PLK2 (human)): 106%; residual activity (PTK2B (human)): 65.6%; residual activity (PTK6 (human)): 11.1%; residual activity (RPS6KA2 KD1 KD2 (human)): 91.5%; residual activity (RPS6KA4 KD2 (human)): 103%; residual activity (RPS6KA5 KD2 (human)): 83.6%; residual activity (SLK (human)): 64.1%; residual activity (SRC (human)): 2.07%; residual activity (SRMS (human)): 94.4%; residual activity (TAOK2 (human)): 81.4%; residual activity (TEC (human)): 108%; residual activity (TSSK2 (human)): 95.6%; residual activity (WNK2 (human)): 103%
CNC(=O)c1cc(Oc2ccc(NC(=O)Nc3ccc(Cl)c(C(F)(F)F)c3)cc2)ccn1	104	103	102	108	96.5	91.8	104	102	101	97.7	92.5	72.7	103	99.7	89.7	104	109	57	88.2	105	residual activity (CAMK1G (human)): 107%; residual activity (CSNK1A1 (human)): 97.8%; residual activity (DYRK1A (human)): 103%; residual activity (FYN (human)): 91.6%; residual activity (NEK4 (human)): 99.5%; residual activity (PLK2 (human)): 101%; residual activity (PTK2B (human)): 101%; residual activity (PTK6 (human)): 96.9%; residual activity (RPS6KA2 KD1 KD2 (human)): 93.3%; residual activity (RPS6KA4 KD2 (human)): 97.7%; residual activity (RPS6KA5 KD2 (human)): 102%; residual activity (SLK (human)): 96.8%; residual activity (SRMS (human)): 107%; residual activity (TAOK2 (human)): 36.9%; residual activity (TEC (human)): 101%; residual activity (TSSK2 (human)): 102%; residual activity (WNK2 (human)): 101%
Cc1ccc(Nc2nccc(N(C)c3ccc4c(C)n(C)nc4c3)n2)cc1S(N)(=O)=O	102	101	99.4	106	93.5	96.5	96.1	103	92.7	103	94.5	40.2	101	97.6	94.8	28.5	110	30.3	57.2	94.8	residual activity (CSNK1A1 (human)): 100%; residual activity (EPHB4 (human)): 93.8%; residual activity (NEK4 (human)): 91.1%; residual activity (PLK2 (human)): 101%; residual activity (PTK2B (human)): 92%; residual activity (PTK6 (human)): 66.2%; residual activity (RPS6KA2 KD1 KD2 (human)): 93.2%; residual activity (RPS6KA4 KD2 (human)): 102%; residual activity (RPS6KA5 KD2 (human)): 101%; residual activity (SLK (human)): 84.9%; residual activity (SRC (human)): 70.7%; residual activity (SRMS (human)): 115%; residual activity (TAOK2 (human)): 26.8%; residual activity (TEC (human)): 101%; residual activity (TSSK2 (human)): 102%; residual activity (WNK2 (human)): 98.2%
CCN(CC)CCNC(=O)c1c(C)[nH]c(/C=C2\C(=O)Nc3ccc(F)cc32)c1C	112	54.5	11.6	25.1	91	50.5	59.7	73.4	80.2	23.3	84.5	50.5	85.5	71.3	25.4	104	51.9	4.06	39.8	106	residual activity (CSF1R (human)): 7.28%; residual activity (DYRK1A (human)): 56.9%; residual activity (FYN (human)): 71.3%; residual activity (NEK4 (human)): 94.1%; residual activity (PLK2 (human)): 99.2%; residual activity (PTK2B (human)): 38.3%; residual activity (PTK6 (human)): 84.5%; residual activity (RPS6KA2 KD1 KD2 (human)): 17.3%; residual activity (RPS6KA4 KD2 (human)): 50.8%; residual activity (RPS6KA5 KD2 (human)): 60.1%; residual activity (SLK (human)): 63.8%; residual activity (SRMS (human)): 99.6%; residual activity (TAOK2 (human)): 90.3%; residual activity (TEC (human)): 94.8%; residual activity (TSSK2 (human)): 72.9%; residual activity (WNK2 (human)): 100%
